Values of other authors in patent publication US10765633B2, “Formulation comprising liposomes” (Eisai R&D Management Co., Ltd., priority 2018, dated 2020).

Test system: HDL
Conditions: binding of eritoran to HDL

## CCCCCC/C=C\CCCCCCCCCC(=O)N[C@H]1[C@H](OC[C@H]2O[C@H](OP(=O)(O)O)[C@H](NC(=O)CC(=O)CCCCCCCCCCC)[C@@H](OCCCCCCCCCC)[C@@H]2O)O[C@H](COC)[C@@H](OP(=O)(O)O)[C@@H]1OCC[C@@H](CCCCCCC)OC [eritoran, Eritoran]
  effect of binding to HDL on drug activity: time-dependent loss of drug activity
